Results as given in patent publication EP2599767A1, “Phenylbutyl-derivatives” (Lunamed AG, priority 2011, dated 2013).
Read-outs that look alike come from different tables or passages of the source.

Assays:
Jurkat cells [1] = assay: Cell proliferation assay (dilution of fluorescent membrane marker, flow cytometry); type: cell-based; settings: for IC50: Homo sapiens, Jurkat, 48 h; for anti-proliferative effect (in words): Jurkat cell line, 48 hours of treatment, without zVAD, Example 3: 30mM and 10mM
Experimental: This study was performed using the following cell line on the two types of experiments performed: • Experiment 1: Study of the effects of compounds of Examples 3 and 4 according to the invention on apoptosis and cell proliferation: • o Jurkat: acute T cell leukemia • Experiment 2: Study of the caspase dependency of cell death induced by the compounds of Example 3 and 4 according to the invention. • o Jurkat: acute T cell leukemia This assay is based on the dilution rate of a fluorescent membrane marker which is a direct function of cell division. This probe is non toxic and allows the multiplexed detection of other parameters on the same cell population. The assay is performed by loading the cells with a fluorescent phospholipid analogue before plating. […] Subsequently, Flow cytometry analyzes the dilution rate of the fluorescent probe at the single cell level which is a direct readout of the number of cell divisions. All the conditions were performed in triplicate. Detection of cellular events was performed in triplicate in 96 well-plates after 48 hours of treatment by automated flow cytometry. Non-linear regressions and IC50 calculation were performed with GraphPad Prism 4.01 software. Briefly the time course of the experiments was the following: • o day 1 : seeding of cells in 96 well-plates. • o day 2 : treatment with compounds. • o day 4 : analysis at 48h-treatment. […] Effects of the two compounds of Examples 3 and 4 on apoptosis and cell proliferation in the Jurkat cell line: • The cells were labeled for subsequent cell proliferation measurements and plated in 96 well culture plates in standard culture conditions. • 24 hours after plating, the cells were treated with the two compounds of Examples 3 and 4. Experiment 2: […]

Jurkat cells [2] = assay: Apoptosis assay (active Caspase 3/7 by FAM-DEVD-FMK probe, flow cytometry); type: cell-based; settings: Jurkat cell line; for EC50: Homo sapiens, pro-apoptotic effects; for EC50 / pro-apoptotic effect (in words): 48 hours of treatment; for caspase dependence: effects in presence of zVAD-FMK (in words): 100µM zVAD-FMK, Example 4 at 5mM; for pro-apoptotic effect (in words): Example 3: 30mM and 10mM
Experimental: This study was performed using the following cell line on the two types of experiments performed: • Experiment 1: Study of the effects of compounds of Examples 3 and 4 according to the invention on apoptosis and cell proliferation: • o Jurkat: acute T cell leukemia • Experiment 2: Study of the caspase dependency of cell death induced by the compounds of Example 3 and 4 according to the invention. • o Jurkat: acute T cell leukemia Apoptosis was quantified at the single cell level by titrating active Caspase 3/7. This assay is based on the strong affinity of the FAM-DEVD-FMK peptide (carboxyfluorescein-labeled fluoromethyl ketone) for the catalytic site of the protease. When added to a cell culture, the FAM-DEVD-FMK probe enters cells and covalently binds to the large subunit of the active caspase 3/7. The bound labelled peptide remains within the cytosolic compartment, while the unbound peptides are drained off from the cell. The probe emits a green fluorescent signal which allows a direct measure of the amount of active caspase 3/7 present in the cell. All the conditions were performed in triplicate. Detection of cellular events was performed in triplicate in 96 well-plates after 48 hours of treatment by automated flow cytometry. Non-linear regressions and IC50 calculation were performed with GraphPad Prism 4.01 software. Briefly the time course of the experiments was the following: • o day 1 : seeding of cells in 96 well-plates. • o day 2 : treatment with compounds. • o day 4 : analysis at 48h-treatment. […] Effects of the two compounds of Examples 3 and 4 on apoptosis and cell proliferation in the Jurkat cell line: • The cells were labeled for subsequent cell proliferation measurements and plated in 96 well culture plates in standard culture conditions. • 24 hours after plating, the cells were treated with the two compounds of Examples 3 and 4. Experiment 2: […] zVad-FMK is a cell-permeant pan caspase inhibitor that irreversibly binds to the catalytic site of caspase proteases and can inhibit induction of apoptosis.

[3] = Solubility in solvents (qualitative); type: physicochemical; settings: solvents as named in the value
[4] = without zVAD, read-out: EC50 (without zVAD)
[5] = +100µM zVAD, read-out: EC50 (+100µM zVAD)

IC50 (Jurkat cells [1]; read-out: IC50 (+100µM zVAD))	IC50 (Jurkat cells [1]; read-out: IC50 (without zVAD))	EC50 (Jurkat cells [2]; [4])	EC50 (Jurkat cells [2]; [5])	Compound	anti-proliferative effect (in words) (Jurkat cells [1])	caspase dependence: effects in presence of zVAD-FMK (in words) (Jurkat cells [2])	pro-apoptotic effect (in words) (Jurkat cells [2]; without zVAD)	solubility (in words) [3]
2200 µM	2600 µM	3.2 mM	10 mM	O=C(O)CCCc1ccccc1 [Example 4-PB, 4-Phenylbutyric acid, reference compound]	inhibit proliferation	well inhibited by zVAD-FMK	able to elicit apoptosis	
	9000 µM			C[C@H](NC(=O)CCCc1ccccc1)C(=O)OCCOC(=O)[C@@H](C)NC(=O)CCCc1ccccc1 [Example 4]	concentration dependent anti-proliferative effect	no apoptosis was observed	able to induce apoptosis only at the highest concentration tested (5mM)	soluble in dichloromethane, ethyl acetate and acetonitrile
4300 µM	3200 µM	6.4 mM	13 mM	CC(NC(=O)CCCc1ccccc1)C(=O)O (centres unmarked) [Example 3, 2-(4-Phenyl-butyrylamino)-propionic acid]	anti-proliferative effects	sensitive to 100µM zVAD-fmk	pro-apoptotic	soluble in alcohols (ethanol and methanol) as well as in acetic acid

Compound	IC50 (Jurkat cells [1]; read-out: IC50 (+100µM zVAD))	IC50 (Jurkat cells [1]; read-out: IC50 (without zVAD))	EC50 (Jurkat cells [2]; [4])	EC50 (Jurkat cells [2]; [5])	anti-proliferative effect (in words) (Jurkat cells [1])	caspase dependence: effects in presence of zVAD-FMK (in words) (Jurkat cells [2])	pro-apoptotic effect (in words) (Jurkat cells [2]; without zVAD)	solubility (in words) [3]
CN[C@@H]1C[C@H]2O[C@@](C)([C@@H]1OC)n1c3ccccc3c3c4c(c5c6ccccc6n2c5c31)C(=O)NC4 [STS, Staurosporine, reference compound]	0.011 µM	0.012 µM	2.3e-05 mM					
